# Assay results taken from PMC2096529 (Purinergic Signalling, 2005).
# Columns and labels:
# Assay in all cases: Fluo-3 calcium mobilization, FLIPR, […]1 cells
# Format in all cases: cell-based
# human P2Y1 receptor = human P2Y1 receptor (Homo sapiens, UniProt P47900)
# human P2Y2 receptor = human P2Y2 receptor (Homo sapiens, UniProt P41231)
# human P2Y6 receptor = human P2Y6 receptor (Homo sapiens, UniProt Q15077)
# human P2Y4 receptor = human P2Y4 receptor (Homo sapiens, UniProt P51582)
# human P2Y4 receptor, sequence (P51582 whole entry): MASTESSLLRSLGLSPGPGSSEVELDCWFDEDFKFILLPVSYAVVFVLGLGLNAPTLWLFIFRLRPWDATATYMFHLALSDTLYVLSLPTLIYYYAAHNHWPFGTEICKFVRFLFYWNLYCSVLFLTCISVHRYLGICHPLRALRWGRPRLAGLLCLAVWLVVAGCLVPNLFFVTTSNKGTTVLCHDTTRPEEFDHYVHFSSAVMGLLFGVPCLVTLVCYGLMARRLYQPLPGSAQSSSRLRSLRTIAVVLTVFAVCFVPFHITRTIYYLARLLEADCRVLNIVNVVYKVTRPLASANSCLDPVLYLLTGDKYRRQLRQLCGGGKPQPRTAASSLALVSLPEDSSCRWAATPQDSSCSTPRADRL
# human P2Y6 receptor, sequence (Q15077 whole entry): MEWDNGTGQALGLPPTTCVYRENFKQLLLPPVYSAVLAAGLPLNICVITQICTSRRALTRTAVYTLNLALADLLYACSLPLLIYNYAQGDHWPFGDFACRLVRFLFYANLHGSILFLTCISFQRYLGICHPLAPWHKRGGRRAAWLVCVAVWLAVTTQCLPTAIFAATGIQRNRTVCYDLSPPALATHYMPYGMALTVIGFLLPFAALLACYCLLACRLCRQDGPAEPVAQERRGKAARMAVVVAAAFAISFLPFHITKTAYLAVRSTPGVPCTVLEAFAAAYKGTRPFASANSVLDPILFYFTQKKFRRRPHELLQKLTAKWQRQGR
# human P2Y2 receptor, sequence (P41231 whole entry): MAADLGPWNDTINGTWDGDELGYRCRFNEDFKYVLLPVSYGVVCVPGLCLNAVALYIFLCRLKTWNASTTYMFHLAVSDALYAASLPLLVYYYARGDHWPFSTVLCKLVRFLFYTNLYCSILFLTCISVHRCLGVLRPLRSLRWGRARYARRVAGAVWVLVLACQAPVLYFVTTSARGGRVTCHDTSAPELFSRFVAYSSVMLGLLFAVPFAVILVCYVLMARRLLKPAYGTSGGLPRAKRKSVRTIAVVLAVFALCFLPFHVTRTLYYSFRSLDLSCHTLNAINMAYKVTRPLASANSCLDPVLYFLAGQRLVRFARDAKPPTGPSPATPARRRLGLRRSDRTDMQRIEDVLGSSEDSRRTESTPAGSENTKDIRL
# human P2Y1 receptor, sequence (P47900 whole entry): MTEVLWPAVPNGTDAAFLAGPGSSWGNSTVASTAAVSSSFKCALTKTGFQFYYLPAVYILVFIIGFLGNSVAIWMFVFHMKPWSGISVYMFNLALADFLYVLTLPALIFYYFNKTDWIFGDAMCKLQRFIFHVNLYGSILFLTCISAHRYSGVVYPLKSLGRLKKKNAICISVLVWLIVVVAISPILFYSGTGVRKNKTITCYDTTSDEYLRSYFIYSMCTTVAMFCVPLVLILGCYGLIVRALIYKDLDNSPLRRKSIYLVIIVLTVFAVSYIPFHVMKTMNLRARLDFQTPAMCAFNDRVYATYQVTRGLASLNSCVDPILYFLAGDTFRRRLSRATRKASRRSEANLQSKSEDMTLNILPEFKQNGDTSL
Compound,EC50 (human P2Y1 receptor),EC50 (human P2Y2 receptor),EC50 (human P2Y6 receptor),EC50 (human P2Y4 receptor)
"Nc1ncnc2c1ncn2[C@@H]1O[C@H](CO[P@](=O)(O)O[P@](=O)(O)OC[C@H]2O[C@@H](n3cnc4c(N)ncnc43)[C@H](O)[C@@H]2O)[C@@H](O)[C@H]1O [compound 13, AP2A]",4.25 µM,,,
"Nc1ncnc2c1ncn2[C@@H]1O[C@H](COP(=O)(O)OP(=O)(O)OC[C@H]2O[C@@H](n3ccc(=O)[nH]c3=O)[C@H](O)[C@@H]2O)[C@@H](O)[C@H]1O [compound 14, AP2U]",2.85 µM,23.4 µM,,
"Nc1ccn([C@@H]2O[C@H](COP(=O)(O)OP(=O)(O)OC[C@H]3O[C@@H](n4cnc5c(N)ncnc54)[C@H](O)[C@@H]3O)[C@@H](O)[C@H]2O)c(=O)n1 [compound 15, AP2C]",2.11 µM,6.9 µM,18.8 µM,
"Nc1nc2c(ncn2[C@H]2C[C@H](O)[C@@H](COP(=O)(O)OP(=O)(O)OC[C@H]3O[C@@H](n4cnc5c(N)ncnc54)[C@H](O)[C@@H]3O)O2)c(=O)[nH]1 [compound 17, AP2dG]",24.6 µM,,> 10 µM,
"Nc1nc2c(ncn2[C@H]2C[C@H](O)[C@@H](COP(=O)(O)OP(=O)(O)OC[C@H]3O[C@@H](n4ccc(=O)[nH]c4=O)[C@H](O)[C@@H]3O)O2)c(=O)[nH]1 [compound 20, UP2dG]",> 10 µM,29 µM,> 10 µM,
"O=c1[nH]c(=S)ccn1[C@@H]1O[C@H](COP(=O)(O)OP(=O)(O)OC[C@H]2O[C@@H](n3ccc(=S)[nH]c3=O)[C@H](O)[C@@H]2O)[C@@H](O)[C@H]1O [compound 23, 4-thioUP24-thioU]",> 10 µM,29.1 µM,25.2 µM,33.9 µM
"Nc1ncnc2c1ncn2[C@@H]1O[C@H](COP(=O)(O)OP(=O)(O)OP(=O)(O)OC[C@H]2O[C@@H](n3cnc4c(N)ncnc43)[C@H](O)[C@@H]2O)[C@@H](O)[C@H]1O [compound 25, AP3A]",0.011 µM,28.5 µM,,
"Nc1ncnc2c1ncn2[C@@H]1O[C@H](COP(=O)(O)OP(=O)(O)OP(=O)(O)OC[C@H]2O[C@@H](n3ccc(=O)[nH]c3=O)[C@H](O)[C@@H]2O)[C@@H](O)[C@H]1O [compound 26, AP3U]",0.039 µM,2 µM,0.17 µM,
"Nc1ccn([C@@H]2O[C@H](COP(=O)(O)OP(=O)(O)OP(=O)(O)OC[C@H]3O[C@@H](n4cnc5c(N)ncnc54)[C@H](O)[C@@H]3O)[C@@H](O)[C@H]2O)c(=O)n1 [compound 27, AP3C]",0.085 µM,6 µM,> 10 µM,
"Nc1ccn([C@@H]2O[C@H](COP(=O)(O)OP(=O)(O)OP(=O)(O)OC[C@H]3O[C@@H](n4cnc5c(=O)[nH]cnc54)[C@H](O)[C@@H]3O)[C@@H](O)[C@H]2O)c(=O)n1 [compound 35, CP3I]",> 10 µM,> 10 µM,,
"Nc1ccn([C@@H]2O[C@H](COP(=O)(O)OP(=O)(O)OP(=O)(O)OC[C@H]3O[C@@H](n4ccc(=O)[nH]c4=O)C[C@@H]3O)[C@@H](O)[C@H]2O)c(=O)n1 [compound 36, CP3dU]",17 µM,3.1 µM,0.81 µM,40 µM

# Results, then the molecule that gave them:
EC50 (human P2Y1 receptor),EC50 (human P2Y2 receptor),EC50 (human P2Y6 receptor),EC50 (human P2Y4 receptor),Compound
26.5 µM,1.3 µM,9.14 µM,1.5 µM,"Nc1nc2c(ncn2[C@@H]2O[C@H](COP(=O)(O)OP(=O)(O)OC[C@H]3O[C@@H](n4cnc5c(N)ncnc54)[C@H](O)[C@@H]3O)[C@@H](O)[C@H]2O)c(=O)[nH]1 [compound 16, AP2G]"
0.12 µM,0.23 µM,1.53 µM,0.52 µM,"Nc1nc2c(ncn2[C@@H]2O[C@H](COP(=O)(O)OP(=O)(O)OP(=O)(O)OC[C@H]3O[C@@H](n4cnc5c(N)ncnc54)[C@H](O)[C@@H]3O)[C@@H](O)[C@H]2O)c(=O)[nH]1 [compound 28, AP3G]"
0.11 µM,1.2 µM,1.06 µM,2.55 µM,"Nc1ncnc2c1ncn2[C@@H]1O[C@H](COP(=O)(O)OP(=O)(O)OP(=O)(O)OC[C@H]2O[C@@H](n3cnc4c(=O)[nH]cnc43)[C@H](O)[C@@H]2O)[C@@H](O)[C@H]1O [compound 29, AP3I]"
0.32 µM,0.054 µM,,,"Nc1ncnc2c1ncn2[C@@H]1O[C@H](COP(=O)(O)OP(=O)(O)OP(=O)(O)OP(=O)(O)OC[C@H]2O[C@@H](n3cnc4c(N)ncnc43)[C@H](O)[C@@H]2O)[C@@H](O)[C@H]1O [compound 39, AP4A]"
4.75 µM,0.35 µM,,1.45 µM,"Nc1ncnc2c1ncn2[C@@H]1O[C@H](COP(=O)(O)OP(=O)(O)OP(=O)(O)OP(=O)(O)OC[C@H]2O[C@@H](n3ccc(=O)[nH]c3=O)[C@H](O)[C@@H]2O)[C@@H](O)[C@H]1O [compound 40, AP4U]"
0.75 µM,0.15 µM,,,"Nc1ccn([C@@H]2O[C@H](COP(=O)(O)OP(=O)(O)OP(=O)(O)OP(=O)(O)OC[C@H]3O[C@@H](n4cnc5c(N)ncnc54)[C@H](O)[C@@H]3O)[C@@H](O)[C@H]2O)c(=O)n1 [compound 41, AP4C]"
0.55 µM,0.17 µM,,,"Nc1ncnc2c1ncn2[C@@H]1O[C@H](COP(=O)(O)OP(=O)(O)OP(=O)(O)OP(=O)(O)OC[C@H]2O[C@@H](n3cnc4c(=O)[nH]cnc43)[C@H](O)[C@@H]2O)[C@@H](O)[C@H]1O [compound 42, AP4I]"
,0.04 µM,190 µM,0.17 µM,"O=c1ccn([C@@H]2O[C@H](COP(=O)(O)OP(=O)(O)OP(=O)(O)OP(=O)(O)OC[C@H]3O[C@@H](n4ccc(=S)[nH]c4=O)[C@H](O)[C@@H]3O)[C@@H](O)[C@H]2O)c(=O)[nH]1 [compound 47, UP44-thioU]"
,0.23 µM,> 10 µM,0.47 µM,"O=c1ccn([C@@H]2O[C@H](COP(=O)(O)OP(=O)(O)OP(=O)(O)OP(=O)(O)OC[C@H]3O[C@@H](n4cnc5c(=O)[nH]cnc54)C[C@@H]3O)[C@@H](O)[C@H]2O)c(=O)[nH]1 [compound 48, UP4dI]"
,0.06 µM,1.68 µM,0.14 µM,"Nc1nc2c(ncn2[C@H]2C[C@H](O)[C@@H](COP(=O)(O)OP(=O)(O)OP(=O)(O)OP(=O)(O)OC[C@H]3O[C@@H](n4ccc(=O)[nH]c4=O)[C@H](O)[C@@H]3O)O2)c(=O)[nH]1 [compound 49, UP4dG]"
6.13 µM,0.59 µM,3.32 µM,0.22 µM,"Nc1ccn([C@@H]2O[C@H](COP(=O)(O)OP(=O)(O)OP(=O)(O)OP(=O)(O)OC[C@H]3O[C@@H](n4ccc(=O)[nH]c4=O)[C@H](O)[C@@H]3O)[C@@H](O)[C@@H]2O)c(=O)n1 [compound 50, UP4araC]"
3.49 µM,0.05 µM,4.2 µM,0.07 µM,"Nc1ncnc2c1ncn2[C@H]1C[C@H](O)[C@@H](COP(=O)(O)OP(=O)(O)OP(=O)(O)OP(=O)(O)OC[C@H]2O[C@@H](n3ccc(=O)[nH]c3=O)[C@H](O)[C@@H]2O)O1 [compound 52, UP4dA]"
,0.036 µM,5.22 µM,0.11 µM,"Nc1ccn([C@@H]2O[C@H](COP(=O)(O)OP(=O)(O)OP(=O)(O)OP(=O)(O)OC[C@H]3O[C@@H](n4ccc(=S)[nH]c4=O)[C@H](O)[C@@H]3O)[C@@H](O)[C@H]2O)c(=O)n1 [compound 55, CP44-thioU]"
,0.082 µM,6.82 µM,0.09 µM,"O=c1[nH]c(=S)ccn1[C@@H]1O[C@H](COP(=O)(O)OP(=O)(O)OP(=O)(O)OP(=O)(O)OC[C@H]2O[C@@H](n3ccc(=S)[nH]c3=O)[C@H](O)[C@@H]2O)[C@@H](O)[C@H]1O [compound 56, 4-thioUP44-thioU]"
